Source: paper PMC10375191, “Transformable Neuropeptide Prodrug with Tumor Microenvironment Responsiveness for Tumor Growth and Metastasis Inhibition of Triple‐Negative Breast Cancer” (Advanced Science, 2023)
Starred links: 1 amine or outer side, 2 acyl side, 3 side chain; linkers in the order of their positions; H or OH if unused. Residues, ends and D or L forms follow the SMILES beside them. *: point of attachment. Doxorubicin(3'-N) = COc1cccc2c1C(=O)c1c(O)c3c(c(O)c1C2=O)C[C@@](O)(C(=O)CO)C[C@@H]3O[C@H]1C[C@H](N*)[C@H](O)[C@H](C)O1; Suc = O=C(CCC(=O)[*:2])[*:1]

Legend:
[1] = tested on: MDA‐MB‐231 xenograft model; assay: In vivo antitumor evaluation, MDA-MB-231 xenograft; parameters: species or system mouse; conditions: MDA-MB-231 tumor-bearing nude mice; DOX-P18 up to 100 mg kg^−1 (20 mg kg^−1 DOX); DOX at 10 and 20 mg kg^−1
From the text: (§1) All the animal experimental procedures were recognized and approved by the Regional Ethics Committee for Animal Experiments at Ningbo University, China (Permit NO. SYXK (Zhe) 2019‐0005). The triple‐negative breast cancer (TNBC) xenograft tumors were established on female BALB/c nude mice (≈15 g) by subcutaneous injection of MDA‐MB‐231 cells (5 × 10^6 cells in each mouse). TNBC metastasis models were constructed by injecting MDA‐MB‐231‐luc cells (1 × 10^5 cells in each mouse) through the tail vein to female BALB/c nude mice. The day that MDA‐MB‐231‐luc was injected was set as D0. In vivo imaging system (IVIS) (Lumina XRMS Ш, PerkinElmer, USA) was utilized to identify the tumor metastasis at D12.
When the tumor volume of BALB/c mice reached ≈70 mm^3 (V = L × W × W/2), the tumor‐bearing mice were randomly divided into seven groups (n = 5 for each group). […] 100 µL drug was injected intravenously through the tail vein every other day for a total of five times. The day that the first injection was given was set as D0. Tumor size and mouse weight were measured every 2 days from the day that treatment started until D26.

healthy ICR mice = assay: Maximum tolerated dose / acute toxicity study
From the text: Animal survival of each group (n = 10, 5 female and 5 male) was continuously recorded for 14 days. Eventually, the evaluation and calculation of the median lethal dose (LD50) were completed with these collected data using the Bliss rule.

[2] = tested on: MDA‐MB‐231 metastasis model; assay: Anti-metastasis evaluation, MDA-MB-231 metastasis model; format: in vivo, mouse; conditions: MDA-MB-231 metastasis model, DOX 5 mg kg^−1
From the text: as §1
For the TNBC metastasis model, two kinds of treatments were developed. […] After seven times of injections, continued observation of the mice was carried out. […] In vivo imaging system (IVIS Lumina XRMS Ш, PerkinElmer, USA) was utilized again to estimate the tumor metastasis at D26. Meanwhile, the mice were sacrificed and the main organs (heart, livers, spleen, lung, and kidney) were separated for histological analysis.

MDA‐MB‐231 cells = assay: CCK-8 cell viability assay, MDA-MB-231; format: cell-based, human
Protocol: (§2) MDA‐MB‐231 cells were incubated in 96‐well plates for 24 h (1 × 10^4 cells per well). […] At the appointed time, 10 µL CCK‐8 solution was dropped into each well and further co‐incubated with treated cells for 2 h. The absorbance values at 450 nm were measured by an automated plate reader (iMark (168‐1130), Biorad, USA). The IC50 values were obtained from Microsoft Excel's FORECAST formula.

MCF‐10A cells = assay: CCK-8 cell viability assay, MCF-10A; format: cell-based, human; conditions: 24 h
Protocol: as §2
mammary epithelial cell line MCF-10A after 24 h incubation. Data are presented as
means ± standard deviations (n = 3).
(§3) (1 picture or pasted object on this page, not shown here)

MCF‐7 cells = assay: CCK-8 cell viability assay, MCF-7; format: cell-based, human; conditions: MCF-7, 24 h
Protocol: as §2
breast cancer cell line MCF-7 after 24 h incubation. Data are presented as means ±
standard deviations (n = 3).
as §3

[3] = Morphological transformation / particle size by DLS and TEM in PBS of different pH; format: physicochemical; conditions: TEM, PBS pH 6.5

SMILES: COc1cccc2c1C(=O)c1c(O)c3c(c(O)c1C2=O)C[C@@](O)(C(=O)CO)C[C@@H]3O[C@H]1C[C@H](N)[C@H](O)[C@H](C)O1 [DOX, doxorubicin, reference compound]
- Death / body weight in tumor-bearing mice [1]: cause death
- Histological analysis of major organs (healthy ICR mice; 14 days after single dose, 40 mg kg^−1 DOX (or DOX equivalent)): disordered arrangement of myofilaments, glomerulosclerosis, and protein casts
- Blood biochemistry: ALT and ALP activity (healthy ICR mice; 14 days after single injection, with increasing dose, n = 3): gradually decreased
- Survival in metastasis model [2]: no mice survived up to day 14 (D14)

SMILES: COc1cccc2c1C(=O)c1c(O)c3c(c(O)c1C2=O)C[C@@](O)(C(=O)CO)C[C@@H]3O[C@H]1C[C@H](NC(=O)CCC(=O)N2CCC[C@H]2C(=O)N[C@@H](CC(C)C)C(=O)NCC(=O)O)[C@H](O)[C@H](C)O1 [DOX‐P3]
- IC50 with extended incubation time (MDA‐MB‐231 cells; MDA-MB-231, 36 and 48 h versus 24 h): further reduced

SMILES: CC[C@H](C)[C@H](NC(=O)[C@@H]1CCCN1C(=O)[C@H](CC(N)=O)NC(=O)[C@H](CC(N)=O)NC(=O)[C@H](Cc1ccc(O)cc1)NC(=O)[C@H](Cc1c[nH]cn1)NC(=O)[C@H](CCCNC(=N)N)NC(=O)[C@@H](NC(=O)[C@H](CCCNC(=N)N)NC(=O)CNC(=O)CNC(=O)[C@H](CC(C)C)NC(=O)[C@@H]1CCCN1C(=O)CCC(=O)N[C@H]1C[C@H](O[C@H]2C[C@](O)(C(=O)CO)Cc3c(O)c4c(c(O)c32)C(=O)c2c(OC)cccc2C4=O)O[C@@H](C)[C@H]1O)C(C)C)C(=O)N[C@@H](Cc1c[nH]c2ccccc12)C(=O)N[C@@H](CCCNC(=N)N)C(=O)N[C@@H](CCC(N)=O)C(=O)N[C@@H](CCCNC(=N)N)C(=O)N[C@@H](Cc1ccc(O)cc1)C(N)=O [DOX‐P18R] ({Doxorubicin(3'-N)-Suc}-PLGGRVRHYNNPIWRQRY-NH2)
- IC50 (cytotoxicity), in words (MCF‐10A cells): particularly high IC50 values
- IC50 (cytotoxicity), in words (MCF‐7 cells): particularly high IC50 values
- IC50 (cytotoxicity), in words (MDA‐MB‐231 cells; MDA-MB-231, 24 h): particularly high IC50 values

SMILES: CC[C@H](C)[C@H](NC(=O)[C@@H]1CCCN1C(=O)[C@H](CC(N)=O)NC(=O)[C@H](CC(N)=O)NC(=O)[C@H](Cc1ccc(O)cc1)NC(=O)[C@H](Cc1c[nH]cn1)NC(=O)[C@H](CCCNC(=N)N)NC(=O)CNC(=O)[C@H](CCCNC(=N)N)NC(=O)[C@@H](N)C(C)C)C(=O)N[C@@H](Cc1c[nH]c2ccccc12)C(=O)N[C@@H](CCCNC(=N)N)C(=O)N[C@@H](CCC(N)=O)C(=O)N[C@@H](CCCNC(=N)N)C(=O)N[C@@H](Cc1ccc(O)cc1)C(N)=O [P15] (H-VRGRHYNNPIWRQRY-NH2)
- Morphology by TEM [3]: fibroid aggregations
